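Test compounds were applied to cells in 96-well plates for 48 hours at 5 doses. TGI: concentration producing complete growth inhibition.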 Where only a bound is given, the exact number is not on record here.

The first test relates to NCI-H23 lung. Kind of test: NCI tumour cell line growth inhibition, 48 h.
In turn, `COc1ccc2c3c1O[C@]1(C)C34CCN(C)C(C2)C42C=C[C@@]1(OC)c1c(O)ccc(O)c12` gave a TGI above 100 µM.

Take `C[N+](C)(C)CC(=O)N/N=C/c1oc(-c2c(O)ccc3ccccc23)c(-c2c(O)ccc3ccccc23)c1[N+](=O)[O-]`: the TGI was determined as 37.2 µM.

`C/C(CC(=O)Nc1ccc([N+](=O)[O-])cc1)=N\NC(N)=O`: the TGI was above 100 µM.

As to `CCCCOC(=O)C1C2CCC(O2)C1C(=O)OCCCC` (stereo not drawn), the TGI was above 100 µM.

`O=C(CSc1nnc(-c2ccc(N=Cc3ccc(Cl)cc3)cc2)o1)Nc1ccccc1[N+](=O)[O-]`: the TGI was above 100 µM.

Another test has as its system MOLT-4 leukemia. The experiment in a line: NCI tumour cell line growth inhibition, 48 h.
As for `O=c1[nH]c2cc([N+](=O)[O-])ccc2nc1/C(=N/Nc1ccccc1)C(O)c1ccccc1Cl` (stereo not drawn), the TGI is above 100 µM.

The compound `C=Cc1ccc(C)[n+](C[Si](C)(C)O[Si](C)(C)C)c1` came in with a TGI above 100 µM.

For `C[C@]12CCC(=O)C=C1CC[C@@H]1[C@@H]2CC[C@]2(C)C(=O)NC(=O)C[C@@H]12`, the TGI is above 100 µM.

`COc1cc2c(oc(=O)c3c4oc([Si](C)(C)C)cc4cc(OC)c23)c2cccc(OCc3ccccc3)c12`: the TGI is above 100 µM.

`O=C(c1cccs1)N(C(=S)N1CCN(c2ccccn2)CC1)c1ccccc1`: the TGI is above 100 µM.

`CNS(=O)(=O)NN(C)S(=O)(=O)c1ccccc1` gave a TGI above 100 µM.

`CC(=O)OCC1=C(CCC#N)N2C(=O)C(NC(=O)Cc3cccs3)C2S(=O)C1` (stereo not drawn) had a TGI above 100 µM.

For `CCCCNc1nc(C#N)c(N)s1`, the TGI is above 100 µM.

For `Cn1cc2ccccc2c1-c1nc(F)nc(F)n1`, the TGI is above 100 µM.

With `COC(=O)N/N=C(\Cc1ccccc1)CN(C)C`, the TGI was above 100 µM.

For `COc1ccc2c3c1O[C@]1(C)C34CCN(C)C(C2)C42C=C[C@@]1(OC)c1c(O)ccc(O)c12`, the TGI was above 100 µM.

`C[N+](C)(C)CC(=O)N/N=C/c1oc(-c2c(O)ccc3ccccc23)c(-c2c(O)ccc3ccccc23)c1[N+](=O)[O-]` came in with a TGI of 62.3 µM.

The compound `C/C(CC(=O)Nc1ccc([N+](=O)[O-])cc1)=N\NC(N)=O` came in with a TGI above 100 µM.

Compound `CCCCOC(=O)C1C2CCC(O2)C1C(=O)OCCCC` (stereo not drawn) gave a TGI above 100 µM.

Compound `O=C(CSc1nnc(-c2ccc(N=Cc3ccc(Cl)cc3)cc2)o1)Nc1ccccc1[N+](=O)[O-]` showed a TGI above 100 µM.

A further test relates to SK-MEL-2 melanoma. Kind of test: NCI tumour cell line growth inhibition, 48 h.
Regarding `O=c1[nH]c2cc([N+](=O)[O-])ccc2nc1/C(=N/Nc1ccccc1)C(O)c1ccccc1Cl` (stereo not drawn), the TGI is above 100 µM.

Consider `C=Cc1ccc(C)[n+](C[Si](C)(C)O[Si](C)(C)C)c1`, for which the TGI is above 100 µM.

For the compound `C[C@]12CCC(=O)C=C1CC[C@@H]1[C@@H]2CC[C@]2(C)C(=O)NC(=O)C[C@@H]12`, the TGI was above 100 µM.

`COc1cc2c(oc(=O)c3c4oc([Si](C)(C)C)cc4cc(OC)c23)c2cccc(OCc3ccccc3)c12` gave a TGI above 100 µM.

On to `O=C(c1cccs1)N(C(=S)N1CCN(c2ccccn2)CC1)c1ccccc1`, for which the TGI was above 100 µM.

As to `CNS(=O)(=O)NN(C)S(=O)(=O)c1ccccc1`, the TGI was above 100 µM.

`CC(=O)OCC1=C(CCC#N)N2C(=O)C(NC(=O)Cc3cccs3)C2S(=O)C1` (stereo not drawn) registered a TGI above 100 µM.

Consider `CCCCNc1nc(C#N)c(N)s1`, for which the TGI was above 100 µM.

As to `Cn1cc2ccccc2c1-c1nc(F)nc(F)n1`, the TGI is above 100 µM.

Compound `COC(=O)N/N=C(\Cc1ccccc1)CN(C)C` yielded a TGI above 100 µM.

For `COc1ccc2c3c1O[C@]1(C)C34CCN(C)C(C2)C42C=C[C@@]1(OC)c1c(O)ccc(O)c12`, the TGI is above 100 µM.

As for `C[N+](C)(C)CC(=O)N/N=C/c1oc(-c2c(O)ccc3ccccc23)c(-c2c(O)ccc3ccccc23)c1[N+](=O)[O-]`, the TGI worked out at 33.4 µM.

Regarding `C/C(CC(=O)Nc1ccc([N+](=O)[O-])cc1)=N\NC(N)=O`, the TGI was above 100 µM.

`CCCCOC(=O)C1C2CCC(O2)C1C(=O)OCCCC` (stereo not drawn) displayed a TGI above 100 µM.

As for `O=C(CSc1nnc(-c2ccc(N=Cc3ccc(Cl)cc3)cc2)o1)Nc1ccccc1[N+](=O)[O-]`, the TGI was above 100 µM.

The subject of a further test is TK-10 renal. The experiment in a line: NCI tumour cell line growth inhibition, 48 h.
As for `O=c1[nH]c2cc([N+](=O)[O-])ccc2nc1/C(=N/Nc1ccccc1)C(O)c1ccccc1Cl` (stereo not drawn), the TGI was above 100 µM.

`C[C@]12CCC(=O)C=C1CC[C@@H]1[C@@H]2CC[C@]2(C)C(=O)NC(=O)C[C@@H]12` registered a TGI above 100 µM.

Consider `COc1cc2c(oc(=O)c3c4oc([Si](C)(C)C)cc4cc(OC)c23)c2cccc(OCc3ccccc3)c12`, for which the TGI was above 66.8 µM.

Consider `O=C(c1cccs1)N(C(=S)N1CCN(c2ccccn2)CC1)c1ccccc1`, for which the TGI is above 100 µM.

Take `CNS(=O)(=O)NN(C)S(=O)(=O)c1ccccc1`: the TGI was above 100 µM.

As to `CC(=O)OCC1=C(CCC#N)N2C(=O)C(NC(=O)Cc3cccs3)C2S(=O)C1` (stereo not drawn), the TGI is above 100 µM.

For `CCCCNc1nc(C#N)c(N)s1`, the TGI is above 100 µM.

In the case of `Cn1cc2ccccc2c1-c1nc(F)nc(F)n1`, the TGI was above 100 µM.

Compound `COC(=O)N/N=C(\Cc1ccccc1)CN(C)C` showed a TGI above 100 µM.

Take `COc1ccc2c3c1O[C@]1(C)C34CCN(C)C(C2)C42C=C[C@@]1(OC)c1c(O)ccc(O)c12`: the TGI was above 100 µM.

`C[N+](C)(C)CC(=O)N/N=C/c1oc(-c2c(O)ccc3ccccc23)c(-c2c(O)ccc3ccccc23)c1[N+](=O)[O-]` yielded a TGI of 87.1 µM.

Compound `C/C(CC(=O)Nc1ccc([N+](=O)[O-])cc1)=N\NC(N)=O` displayed a TGI above 100 µM.

Consider `CCCCOC(=O)C1C2CCC(O2)C1C(=O)OCCCC` (stereo not drawn), for which the TGI is above 100 µM.

The compound `O=C(CSc1nnc(-c2ccc(N=Cc3ccc(Cl)cc3)cc2)o1)Nc1ccccc1[N+](=O)[O-]` showed a TGI above 100 µM.

For the next test, the system named is 786-0 renal. The experiment in a line: NCI tumour cell line growth inhibition, 48 h.
On to `O=c1[nH]c2cc([N+](=O)[O-])ccc2nc1/C(=N/Nc1ccccc1)C(O)c1ccccc1Cl` (stereo not drawn), for which the TGI was above 100 µM.

In the case of `C=Cc1ccc(C)[n+](C[Si](C)(C)O[Si](C)(C)C)c1`, the TGI was above 100 µM.

As for `C[C@]12CCC(=O)C=C1CC[C@@H]1[C@@H]2CC[C@]2(C)C(=O)NC(=O)C[C@@H]12`, the TGI was above 100 µM.

Turning to `COc1cc2c(oc(=O)c3c4oc([Si](C)(C)C)cc4cc(OC)c23)c2cccc(OCc3ccccc3)c12`, the TGI was found to be 34.8 µM.

The record behind these values is PubChem BioAssay (NCI).
